Columns and labels:
MAP3K5 = biological target: T1, MAP3K5 (Homo sapiens, UniProt Q99683); test: DSF; type: binding
T1 construct: purchased in-house DSF panel (SGC Frankfurt)
Experimental: (§2) Recombinant protein kinase domains with a concentration of 2 μM were mixed with a 10 μM compound solution in DMSO, 20 mM HEPES, pH 7.5, and 500 mM NaCl. SYPRO Orange (5000×, Invitrogen) was added as a fluorescence probe (1 µl per mL). Subsequently, temperature-dependent protein unfolding profiles were measured, using the QuantStudio™ 5 realtime PCR machine (Thermo Fisher, Waltham, MA, USA). […] The temperature was raised with a step rate of 3 °C per minute. Data points were analyzed with the internal software (Thermal Shift SoftwareTM Version 1.4, Thermo Fisher) using the Boltzmann equation to determine the inflection point of the transition curve [56]. Differences in melting temperature are given as ΔTm values in °C. Measurements were performed in duplicates.

MAPK8 = biological target: T2, MAPK8 (Homo sapiens, UniProt P45983); test: DSF; type: binding
T2 construct: purchased in-house DSF panel (SGC Frankfurt)
Experimental: as §2

NEK7 = biological target: T3, NEK7 (Homo sapiens, UniProt Q8TDX7); test: DSF; type: binding
T3 construct: purchased in-house DSF panel (SGC Frankfurt)
Experimental: as §2

SPRK1 = biological target: T4, SPRK1 (Homo sapiens, UniProt Q96SB4); test: DSF; type: binding
T4 construct: purchased in-house DSF panel (SGC Frankfurt)
Experimental: as §2

RPS6KA5 = test: DSF; type: binding
Experimental: as §2

BRPF1B = biological target: T5, BRPF1B (Homo sapiens, UniProt P55201); test: DSF; type: binding
T5 construct: purchased in-house DSF panel (SGC Frankfurt)

TLK1 = biological target: T6, TLK1 (Homo sapiens, UniProt Q9UKI8); test: DSF; type: binding
T6 construct: purchased in-house DSF panel (SGC Frankfurt)
Experimental: as §2

PCTAIRE family = test: NanoBRET; type: cell-based; settings: read-out: cellular potency, other members of the PCTAIRE family
Procedure, shortened: (§1)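 Live-cell competitive tracer assay: NanoLuc-kinase fusions transiently expressed 20 h in HEK293T, compound and tracer (at KD,app) incubated 2 h, BRET ratio fitted to give EC50.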

[1] = Microsomal stability assay; type: in vitro ADME, Sprague-Dawley rats; settings: rat liver microsomes, 10 µM, 37 °C, 60 min
Experimental: The lead structure 1 was not included in this assay due to its promiscuous behaviour. Since 1 is presumably not suitable as a tool compound to study the effect of selective kinase inhibition in an in vivo application, we focused on the newly synthesized compounds 21i and 43d. The compounds were tested against an activated microsome mix derived from the liver of Sprague-Dawley rats, as previously reported. 21i and 43d were incubated at 37 °C for 60 min and the amount of unmetabolized compound was determined in 15 min steps, using high-performance liquid chromatography (HPLC).
The solubilized test compound (5 μL, final concentration 10 µM) was preincubated at 37 °C in 432 μL of phosphate buffer (0.1 M, pH 7.4) together with 50 μL NADPH regenerating system (30 mM glucose 6 phosphate, 4 U/mL glucose 6 phosphate dehydrogenase, 10 mM NADP, 30 mM MgCl2). After 5 min, the reaction was started by the addition of 13 μL of microsome mix from the liver of Sprague−Dawley rats (Invitrogen; 20 mg protein/mL in 0.1 M phosphate buffer) in a shaking water bath at 37 °C. The reaction was stopped by adding 500 μL of ice cold methanol at 0, 15, 30 and 60 min. […] The amounts of the test compound were quantified by an external calibration curve. Data are expressed as the mean ± SEM remaining compound from three independent experiments.

GSK3B = GSK3B (Homo sapiens, UniProt P49841); test: NanoBRET; type: cell-based; parameters: Full-length kinases were obtained as plasmids cloned in frame with a terminal NanoLuc-fusion; host or cells: HEK293T
Experimental: The assay was performed as described previously. In brief: Full-length kinases were obtained as plasmids cloned in frame with a terminal NanoLuc-fusion (Promega, Madison, WI, USA), as specified in table (Table S6). Plasmids were transfected into HEK293T cells using FuGENE HD (Promega, E2312) and proteins were allowed to express for 20h. Serially diluted inhibitor and NanoBRET Kinase Tracer (Promega) at a concentration determined previously as the KD,app (Table S5) were pipetted into white 384-well plates (Greiner 781207) using an Echo acoustic dispenser (Labcyte, San Jose, CA, USA). The corresponding protein-transfected cells were added and reseeded at a density of 2.5 × 10^5 cells/mL after trypsinization and resuspending in Opti-MEM without phenol red (Life Technologies, Carlsbad, CA, USA). The system was allowed to equilibrate for 2 h at 37 °C/5% CO2 prior to BRET measurements. To measure BRET, NanoBRET NanoGlo Substrate + Extracellular NanoLuc Inhibitor (Promega, N2540) was added as per the manufacturer’s protocol, and filtered luminescence was measured on a PHERAstar plate reader (BMG Labtech, Ortenberg, Germany) equipped with a luminescence filter pair (450 nm BP filter (donor) and 610 nm LP filter (acceptor)). […]

CDK1/Cyclin B1 = biological target: T7, CDK1/Cyclin B1 (Homo sapiens, UniProt P06493); test: NanoBRET; type: cell-based; settings: read-out: NanoBRET EC50 ± SEM CDK1/Cyclin B1
T7 construct: Full-length kinases were obtained as plasmids cloned in frame with a terminal NanoLuc-fusion; CS1810C170 (CCNB1); host or cells: HEK293T
Procedure, shortened: as §1

CDK5/CDK5R2 = biological target: T8, CDK5/CDK5R2 (Homo sapiens, UniProt Q00535); test: NanoBRET; type: cell-based; settings: read-out: NanoBRET EC50 ± SEM CDK5/CDK5R2
T8 construct: Full-length kinases were obtained as plasmids cloned in frame with a terminal NanoLuc-fusion; CS1810C174 (CDK5R2); host or cells: HEK293T
Procedure, shortened: as §1

CDK5/CDK5R1 = biological target: T9, CDK5/CDK5R1 (Homo sapiens, UniProt Q00535); test: NanoBRET; type: cell-based; settings: read-out: NanoBRET EC50 ± SEM CDK5/CDK5R1
T9 construct: Full-length kinases were obtained as plasmids cloned in frame with a terminal NanoLuc-fusion; CS1810C173 (CDK5R1); host or cells: HEK293T
Procedure, shortened: as §1

359 wild-type kinases = tested on: 359 wild-type kinases; parameters: method as in PMID 19053485; settings: kinome-wide screen; cited from earlier work
JNK3 = biological target: T10, JNK3 (Homo sapiens, UniProt P53779); parameters: method as in PMID 19053485; settings: cited from earlier work
T10 construct: Recombinant protein kinase domains with a concentration of 2 μM were mixed; made in house

CDK2 = biological target: T11, CDK2 (Homo sapiens, UniProt P24941); settings: cited from earlier work
T11 construct: purchased in-house DSF panel (SGC Frankfurt)

CDK5 = settings: cited from earlier work

T2 sequence (P45983 1-364): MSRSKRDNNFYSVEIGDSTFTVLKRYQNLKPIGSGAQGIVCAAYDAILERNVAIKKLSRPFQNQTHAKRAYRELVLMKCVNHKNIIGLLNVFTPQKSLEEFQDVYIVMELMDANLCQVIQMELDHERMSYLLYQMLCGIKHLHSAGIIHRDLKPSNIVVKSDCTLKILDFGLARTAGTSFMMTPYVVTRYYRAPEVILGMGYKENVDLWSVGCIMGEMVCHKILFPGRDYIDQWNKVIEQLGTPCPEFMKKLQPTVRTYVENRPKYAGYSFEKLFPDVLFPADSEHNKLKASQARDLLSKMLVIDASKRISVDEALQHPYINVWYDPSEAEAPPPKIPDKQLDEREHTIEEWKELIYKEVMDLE
T4 sequence (Q96SB4 whole entry): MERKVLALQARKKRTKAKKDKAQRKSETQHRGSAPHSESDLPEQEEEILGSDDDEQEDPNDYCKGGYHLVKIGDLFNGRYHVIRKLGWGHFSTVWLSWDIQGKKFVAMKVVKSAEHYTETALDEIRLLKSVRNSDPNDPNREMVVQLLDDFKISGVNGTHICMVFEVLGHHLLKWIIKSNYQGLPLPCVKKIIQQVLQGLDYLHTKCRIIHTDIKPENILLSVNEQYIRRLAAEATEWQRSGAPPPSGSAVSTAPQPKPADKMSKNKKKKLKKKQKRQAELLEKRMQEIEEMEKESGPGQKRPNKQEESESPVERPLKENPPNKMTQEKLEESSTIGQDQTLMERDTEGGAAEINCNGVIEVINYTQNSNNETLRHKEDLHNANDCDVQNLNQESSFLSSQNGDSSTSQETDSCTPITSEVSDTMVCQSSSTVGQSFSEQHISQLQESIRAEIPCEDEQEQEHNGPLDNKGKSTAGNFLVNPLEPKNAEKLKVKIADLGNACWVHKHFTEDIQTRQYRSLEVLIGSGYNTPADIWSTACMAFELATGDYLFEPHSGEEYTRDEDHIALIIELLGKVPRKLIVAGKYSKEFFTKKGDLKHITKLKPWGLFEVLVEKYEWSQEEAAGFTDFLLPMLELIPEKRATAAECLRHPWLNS
T7 sequence (P06493 whole entry, the tested form may be a part): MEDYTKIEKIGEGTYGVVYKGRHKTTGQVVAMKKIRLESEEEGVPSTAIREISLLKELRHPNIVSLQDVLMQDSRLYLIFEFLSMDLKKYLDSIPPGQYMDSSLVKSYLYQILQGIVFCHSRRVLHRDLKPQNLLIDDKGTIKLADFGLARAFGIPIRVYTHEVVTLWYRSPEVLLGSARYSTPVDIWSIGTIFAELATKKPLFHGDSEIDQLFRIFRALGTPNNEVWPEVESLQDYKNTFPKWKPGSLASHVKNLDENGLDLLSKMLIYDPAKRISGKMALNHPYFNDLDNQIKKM
T7 sequence (P14635 whole entry partner, the tested form may be a part): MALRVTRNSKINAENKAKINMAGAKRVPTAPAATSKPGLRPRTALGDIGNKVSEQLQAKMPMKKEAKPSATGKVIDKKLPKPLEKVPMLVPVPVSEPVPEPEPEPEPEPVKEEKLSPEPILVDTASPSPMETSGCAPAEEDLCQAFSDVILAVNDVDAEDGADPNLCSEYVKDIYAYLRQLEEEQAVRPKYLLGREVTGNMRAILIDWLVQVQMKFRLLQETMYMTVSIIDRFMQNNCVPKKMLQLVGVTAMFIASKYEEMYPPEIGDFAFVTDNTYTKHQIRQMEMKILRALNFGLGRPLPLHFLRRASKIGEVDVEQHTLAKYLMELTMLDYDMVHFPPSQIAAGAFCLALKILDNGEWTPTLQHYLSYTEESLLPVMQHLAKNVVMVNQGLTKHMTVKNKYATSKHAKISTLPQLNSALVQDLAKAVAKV
T3 sequence (Q8TDX7 whole entry): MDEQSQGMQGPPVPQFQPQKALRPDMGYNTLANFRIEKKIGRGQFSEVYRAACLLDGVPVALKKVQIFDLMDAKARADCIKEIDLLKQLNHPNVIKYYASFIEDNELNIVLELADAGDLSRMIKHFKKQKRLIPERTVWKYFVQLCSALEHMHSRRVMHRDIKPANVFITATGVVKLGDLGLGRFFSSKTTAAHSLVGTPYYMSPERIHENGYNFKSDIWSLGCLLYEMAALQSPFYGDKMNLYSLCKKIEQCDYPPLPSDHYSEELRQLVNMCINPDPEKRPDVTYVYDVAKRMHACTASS
T6 sequence (Q9UKI8 456-734): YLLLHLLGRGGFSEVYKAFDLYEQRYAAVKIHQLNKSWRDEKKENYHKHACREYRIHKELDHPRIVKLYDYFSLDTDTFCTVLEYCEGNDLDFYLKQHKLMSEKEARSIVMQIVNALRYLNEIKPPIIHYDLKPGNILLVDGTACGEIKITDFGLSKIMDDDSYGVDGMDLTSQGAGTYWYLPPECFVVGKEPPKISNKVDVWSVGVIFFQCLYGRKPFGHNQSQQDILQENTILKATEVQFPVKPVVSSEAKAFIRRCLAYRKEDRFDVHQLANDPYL
T1 sequence (Q99683 659-951): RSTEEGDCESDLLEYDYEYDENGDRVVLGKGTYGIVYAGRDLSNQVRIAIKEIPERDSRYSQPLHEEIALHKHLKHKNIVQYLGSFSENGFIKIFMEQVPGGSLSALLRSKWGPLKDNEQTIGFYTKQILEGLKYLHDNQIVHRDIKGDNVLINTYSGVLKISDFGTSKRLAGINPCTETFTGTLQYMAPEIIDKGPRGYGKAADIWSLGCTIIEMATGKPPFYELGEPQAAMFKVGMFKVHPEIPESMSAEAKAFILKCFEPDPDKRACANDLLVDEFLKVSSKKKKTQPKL
T9 sequence (Q00535 whole entry, the tested form may be a part): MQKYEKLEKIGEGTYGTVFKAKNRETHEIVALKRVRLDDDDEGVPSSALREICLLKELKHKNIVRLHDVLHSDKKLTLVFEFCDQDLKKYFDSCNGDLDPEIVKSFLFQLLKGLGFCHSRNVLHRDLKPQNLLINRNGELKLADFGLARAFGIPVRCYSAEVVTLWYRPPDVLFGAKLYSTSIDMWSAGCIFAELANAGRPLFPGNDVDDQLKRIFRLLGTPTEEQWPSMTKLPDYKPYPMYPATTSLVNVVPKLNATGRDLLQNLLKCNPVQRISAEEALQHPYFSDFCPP
T9 sequence (Q15078 whole entry partner, the tested form may be a part): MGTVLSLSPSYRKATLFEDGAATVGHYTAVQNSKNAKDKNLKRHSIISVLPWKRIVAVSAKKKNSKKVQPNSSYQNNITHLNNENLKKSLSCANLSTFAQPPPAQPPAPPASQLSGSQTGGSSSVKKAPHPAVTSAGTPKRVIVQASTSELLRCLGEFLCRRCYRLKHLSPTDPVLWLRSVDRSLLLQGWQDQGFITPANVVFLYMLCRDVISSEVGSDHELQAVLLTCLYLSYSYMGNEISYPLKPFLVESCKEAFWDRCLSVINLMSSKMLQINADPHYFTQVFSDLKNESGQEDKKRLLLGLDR
T8 sequence (Q00535 whole entry, the tested form may be a part): as the sequence (Q00535 whole entry, the tested form may be a part) above
T8 sequence (Q13319 whole entry partner, the tested form may be a part): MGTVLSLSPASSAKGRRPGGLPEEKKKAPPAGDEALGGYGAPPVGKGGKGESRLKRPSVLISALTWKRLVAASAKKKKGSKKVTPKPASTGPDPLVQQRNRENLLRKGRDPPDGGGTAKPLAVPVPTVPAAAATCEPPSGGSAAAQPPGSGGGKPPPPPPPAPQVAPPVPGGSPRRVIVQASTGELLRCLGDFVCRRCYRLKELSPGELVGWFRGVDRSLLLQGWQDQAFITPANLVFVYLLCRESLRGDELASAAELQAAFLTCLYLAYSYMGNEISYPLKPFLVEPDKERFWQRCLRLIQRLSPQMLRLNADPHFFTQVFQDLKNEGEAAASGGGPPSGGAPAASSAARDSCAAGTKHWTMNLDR
T10 sequence (P53779 64-359 limits assumed): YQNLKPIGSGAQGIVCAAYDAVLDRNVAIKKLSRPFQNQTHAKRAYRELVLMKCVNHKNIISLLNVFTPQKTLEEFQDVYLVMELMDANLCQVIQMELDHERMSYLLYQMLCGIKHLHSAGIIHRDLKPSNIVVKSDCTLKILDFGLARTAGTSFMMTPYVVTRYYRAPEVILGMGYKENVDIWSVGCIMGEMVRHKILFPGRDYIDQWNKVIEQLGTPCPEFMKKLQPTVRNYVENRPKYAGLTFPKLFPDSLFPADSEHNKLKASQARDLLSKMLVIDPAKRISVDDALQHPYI
GSK3B, sequence (P49841 whole entry, the tested form may be a part): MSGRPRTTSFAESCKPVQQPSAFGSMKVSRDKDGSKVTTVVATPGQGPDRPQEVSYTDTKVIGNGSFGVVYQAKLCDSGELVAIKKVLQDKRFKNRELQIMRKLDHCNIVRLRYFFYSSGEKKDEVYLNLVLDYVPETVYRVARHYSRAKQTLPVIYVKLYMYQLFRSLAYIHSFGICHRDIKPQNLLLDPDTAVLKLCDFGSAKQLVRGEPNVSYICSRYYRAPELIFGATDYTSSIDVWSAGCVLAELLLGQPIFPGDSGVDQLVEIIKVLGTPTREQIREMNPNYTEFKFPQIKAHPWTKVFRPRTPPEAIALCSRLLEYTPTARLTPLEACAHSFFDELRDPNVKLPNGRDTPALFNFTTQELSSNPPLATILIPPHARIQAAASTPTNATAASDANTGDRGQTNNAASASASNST

SMILES	ΔTm MAP3K5 (MAP3K5) [°C]	ΔTm MAPK8 (MAPK8) [°C]	ΔTm NEK7 (NEK7) [°C]	ΔTm SPRK1 (SPRK1) [°C]	ΔTm RPS6KA5 (RPS6KA5) [°C]	ΔTm BRPF1B (BRPF1B) [°C]	ΔTm TLK1 (TLK1) [°C]	EC50 (PCTAIRE family) [nM]	unmetabolized compound detected [1] [%]	NanoBRET EC50 GSK3B (GSK3B)	EC50 (CDK1/Cyclin B1) [nM]	EC50 (CDK5/CDK5R2) [nM]	EC50 (CDK5/CDK5R1) [nM]	number of kinases targeted of 359 wild-type kinases (359 wild-type kinases)	Kd (JNK3) [nM]	Kd (CDK2) [nM]	Kd (CDK5) [nM]
CC(C)OC(=O)c1cc(Nc2ccnc(NCc3ccc(NC(=O)OC(C)(C)C)cc3)n2)n[nH]1 [42d, isopropyl 3-((2-((4-((tert-butoxycarbonyl)amino)benzyl)amino)pyrimidin-4-yl)amino)-1H-pyrazole-5-carboxylate]	0.1	-0.8	-1.7	-0.2	0.8	-1.4	-1.2										
CC(C)(C)OC(=O)Nc1ccc(CNc2nccc(Nc3cc(C(=O)OC(C)(C)C)[nH]n3)n2)cc1 [43d, tert-butyl 3-((2-((4-((tert-butoxycarbonyl)amino)benzyl)amino)pyrimidin-4-yl)amino)-1H-pyrazole-5-carboxylate]	0.1	-0.1	-1.0	0.4	1.7	-0.9	-1.4	20 to 120	79	negligible							
N#CCc1ccc(Nc2nccc(Nc3cc(C4CC4)[nH]n3)n2)cc1 [compound 1, reference compound]											63.1 ± 10.4	11.9 ± 2.8	30.3 ± 10.3	337	26.1	4.6	27.6
COC(=O)c1cc(Nc2ccnc(NCc3ccc(NC(=O)OC(C)(C)C)cc3)n2)[nH]n1 [21i, methyl 5-((2-((4-((tert-butoxycarbonyl)amino)benzyl)amino)pyrimidin-4-yl)amino)-1H-pyrazole-3-carboxylate]									16		9300 ± 5790	38600 ± 5850	28600 ± 4650				

Reference: PMC9736855, “Discovery of 3-Amino-1H-pyrazole-Based Kinase Inhibitors to Illuminate the Understudied PCTAIRE Family” (International Journal of Molecular Sciences, 2022)
